Measured values from US7691864B2, “Anti-hypertensive composition and methods of treatment” (University of Florida, priority 1994, dated 2010).

System: Male Sprague Dawley rats
Test: Blood pressure and heart rate in carotid-catheterized rats after I.P. dosing
Type: in vivo, rat
Experimental: Male Sprague Dawley rats averaging 400 g were anesthetized with sodium pentobarbital, 50 mg/kg I.P. The animals' neck and shoulder areas were shaved and prepped for surgery. The carotid artery was isolated and clamped using an arterial hemostat. A nick was made in the artery and a segment of PE-50 intramedic tubing was inserted, directed towards the heart and tied into place. The tubing was then flushed with heparin (100 μ/ml) and skin tunneled to the shoulder area. A stylet was inserted into the tip of the catheter to prevent blood leakage. The external incisions were closed with 11 mm staples.
The animals were fasted and allowed to recover overnight. The following morning, the stylet was removed and the tubing flushed with the heparin solution. The rats were placed into individual cages and hooked up to a transducer/oscillograph. The animals were allowed to stabilize in the cages for one-half hour before any recordings began. The oscillograph was then turned on and baseline recordings of the heart rate and blood pressure were made. The rats were given diethylhomospermine in sterile normal saline at a dose of 121.9 or 10 mg/kg I.P. The animals' heart rate and blood pressure were evaluated at t=0, 0.5 (or 1), 3, 5, 10, 15 and 20 minutes post-drug.

[1] = 10 mg/kg I.P., 10 min post-drug
[2] = 10 mg/kg I.P., 15 min post-drug
[3] = 10 mg/kg I.P., 20 min post-drug
[4] = 10 mg/kg I.P., time 0 min (baseline)
[5] = 121.9 mg/kg I.P., 0.5 min post-drug
[6] = 121.9 mg/kg I.P., 3 min post-drug
[7] = 121.9 mg/kg I.P., 5 min post-drug
[8] = 121.9 mg/kg I.P., 10 min post-drug
[9] = 121.9 mg/kg I.P., 15 min post-drug
[10] = 121.9 mg/kg I.P., 20 min post-drug
[11] = 121.9 mg/kg I.P., time 0 min (baseline)

SMILES: CCNCCCCNCCCCNCCCCNCC [diethylhomospermine]
- Blood Pressure (10 mg/kg I.P., 1 min post-drug): 105/95
- Heart Rate (10 mg/kg I.P., 1 min post-drug): 426 b.p.m.
- Blood Pressure (10 mg/kg I.P., 3 min post-drug): 110/99
- Heart Rate (10 mg/kg I.P., 3 min post-drug): 426 b.p.m.
- Blood Pressure (10 mg/kg I.P., 5 min post-drug): 110/98
- Heart Rate (10 mg/kg I.P., 5 min post-drug): 426 b.p.m.
- Blood Pressure [1]: 105/97
- Heart Rate [1]: 402 b.p.m.
- Blood Pressure [2]: 105/97
- Heart Rate [2]: 390 b.p.m.
- Blood Pressure [3]: 107/100
- Heart Rate [3]: 402 b.p.m.
- Blood Pressure [4]: 135/120
- Heart Rate [4]: 414 b.p.m.
- Blood Pressure [5]: 75/68
- Heart Rate [5]: 468 b.p.m.
- Blood Pressure [6]: 52/44
- Heart Rate [6]: 402 b.p.m.
- Blood Pressure [7]: 51/42
- Heart Rate [7]: 354 b.p.m.
- Blood Pressure [8]: 42/40
- Heart Rate [8]: 336 b.p.m.
- Blood Pressure [9]: 39/34
- Heart Rate [9]: 354 b.p.m.
- Blood Pressure [10]: 30/28
- Heart Rate [10]: 348 b.p.m.
- Blood Pressure [11]: 130/120
- Heart Rate [11]: 432 b.p.m.
